US6822146B2, “Sulfonylurea-tolerant sunflower line M7” (priority 2000, dated 2004)
Counter-ions that a name gives are not always drawn.

Key:
M5M7 = experiment: Test B greenhouse phytotoxicity, M5M7; type: in vivo, sunflower; settings: M5M7; 15 g a.i./ha post-emergence 4-leaf stage
Method: (§1) A greenhouse experiment was conducted to evaluate the spectrum of tolerance of three homozygous resistant mutants to various herbicides inhibiting acetolactate synthase (ALS) as their mode of action. The inbred lines tested were the 5th generation self-pollinated maintainers, M5M7, M5M11 and M5M12, as well as the 4th generation male sterile back-crosses BC4-M5M7, BC4-M5M11 and BC4-M5M12. Treatments of formulated herbicides were applied post-emergence at the 4-leaf stage. Application rates of the test herbicides were chosen to coincide with the rates commonly used in the crops for which they are registered. The application rate of imazethapyr was chosen to match the rate recommended to control parasitic weeds in sunflowers by L. García-Torres et al., Weed Technology 1995, 9, 819-824. Wild type H89 inbred sunflower was not included in this test, because the many of the tested herbicides are known to be efficacious in controlling volunteer sunflower as a weed. Treatments were replicated twice. […] A rating of 0% phytotoxicity means no crop injury.

[1] = tested on: homozygous progeny of the three mutant sources; type: in vivo, sunflower; settings: Test B application rates, post-emergence
Method: as §1

BC4-M5M11 = experiment: Test B greenhouse phytotoxicity, BC4-M5M11; type: in vivo, sunflower; settings: BC4-M5M11; 15 g a.i./ha post-emergence 4-leaf stage
Method: as §1

Setaria viridis = experiment: Test H weed control, field plots; type: in vivo; design: concentration or dose not given beside the values; settings: 36 days after treatment; g a.i./ha: tribenuron-methyl 22.5, metsulfuron-methyl 6, ethametsulfuron-methyl 16, imazapyr isopropylamine salt 15, aclonifen 1200
Excerpt: (§2) Field plots (2 m×5 m) were tilled to remove weed cover and then seeded in rows with the following weeds: Capsella bursa pastoris, Atriplex patula, Chenopodium album, Stellaria media, Mecurialis annua, Polygonum persicaria, Amaranthus retroflexus, Polygonum convolvulus, Polygonum aviculare, Viola arvensis, Matricaria inodora, Anagallis arvensis, Sinapis arvensis, Setaria viridis, Solanum nigrum and Echinochloa crusgalli. After 21 days from sowing, at which time the weeds had reached the 2- to 6-leaf stage, herbicide treatments were applied to the plots according to a complete randomized block design, with each herbicide treatment triply replicated. The herbicides were sprayed using standard flat fan nozzles moved perpendicular to the sown lines using water spray volumes of about 296 L/ha.
(§3) Assessments of weed control were made by visual inspection 36 days after herbicide treatment. A visual rating system was used based on a percentage scale from 0 to 100% compared to an adjacent untreated control plot. On this scale 0 represents no visual differences relative to an untreated control and 100 represents complete control of the given weed species.

Viola arvensis = experiment: Test H weed control, field plots; type: in vivo; design: concentration or dose not given beside the values; settings: 36 days after treatment; g a.i./ha: tribenuron-methyl 22.5, metsulfuron-methyl 6, ethametsulfuron-methyl 16, imazapyr isopropylamine salt 15, aclonifen 1200
Excerpt: as §2, §3

Matricaria inodora = experiment: Test H weed control, field plots; type: in vivo; design: concentration or dose not given beside the values; settings: 36 days after treatment; g a.i./ha: tribenuron-methyl 22.5, metsulfuron-methyl 6, ethametsulfuron-methyl 16, imazapyr isopropylamine salt 15, aclonifen 1200
Excerpt: as §2, §3

Sinapis arvensis = experiment: Test H weed control, field plots; type: in vivo; design: concentration or dose not given beside the values; settings: 36 days after treatment; g a.i./ha: tribenuron-methyl 22.5, metsulfuron-methyl 6, ethametsulfuron-methyl 16, imazapyr isopropylamine salt 15, aclonifen 1200
Excerpt: as §2, §3

Mercurialis annua = experiment: Test H weed control, field plots; type: in vivo; design: concentration or dose not given beside the values; settings: 36 days after treatment; g a.i./ha: tribenuron-methyl 22.5, metsulfuron-methyl 6, ethametsulfuron-methyl 16, imazapyr isopropylamine salt 15, aclonifen 1200
Excerpt: as §2, §3

Polygonum persicaria = experiment: Test H weed control, field plots; type: in vivo; design: concentration or dose not given beside the values; settings: 36 days after treatment; g a.i./ha: tribenuron-methyl 22.5, metsulfuron-methyl 6, ethametsulfuron-methyl 16, imazapyr isopropylamine salt 15, aclonifen 1200
Excerpt: as §2, §3

Polygonum convolvulus = experiment: Test H weed control, field plots; type: in vivo; design: concentration or dose not given beside the values; settings: 36 days after treatment; g a.i./ha: tribenuron-methyl 22.5, metsulfuron-methyl 6, ethametsulfuron-methyl 16, imazapyr isopropylamine salt 15, aclonifen 1200
Excerpt: as §2, §3

Anagallis arvensis = experiment: Test H weed control, field plots; type: in vivo; design: concentration or dose not given beside the values; settings: 36 days after treatment; g a.i./ha: tribenuron-methyl 22.5, metsulfuron-methyl 6, ethametsulfuron-methyl 16, imazapyr isopropylamine salt 15, aclonifen 1200
Excerpt: as §2, §3

Solanum nigrum = experiment: Test H weed control, field plots; type: in vivo; design: concentration or dose not given beside the values; settings: 36 days after treatment; g a.i./ha: tribenuron-methyl 22.5, metsulfuron-methyl 6, ethametsulfuron-methyl 16, imazapyr isopropylamine salt 15, aclonifen 1200
Excerpt: as §2, §3

Amaranthus retroflexus = experiment: Test H weed control, field plots; type: in vivo; design: concentration or dose not given beside the values; settings: 36 days after treatment; g a.i./ha: tribenuron-methyl 22.5, metsulfuron-methyl 6, ethametsulfuron-methyl 16, imazapyr isopropylamine salt 15, aclonifen 1200
Excerpt: as §2, §3

Echinochloa crus-galli = experiment: Test H weed control, field plots; type: in vivo; design: concentration or dose not given beside the values; settings: 36 days after treatment; g a.i./ha: tribenuron-methyl 22.5, metsulfuron-methyl 6, ethametsulfuron-methyl 16, imazapyr isopropylamine salt 15, aclonifen 1200
Excerpt: as §2, §3

Polygonum aviculare = experiment: Test H weed control, field plots; type: in vivo; design: concentration or dose not given beside the values; settings: 36 days after treatment; g a.i./ha: tribenuron-methyl 22.5, metsulfuron-methyl 6, ethametsulfuron-methyl 16, imazapyr isopropylamine salt 15, aclonifen 1200
Excerpt: as §2, §3

Atriplex patula = experiment: Test H weed control, field plots; type: in vivo; design: concentration or dose not given beside the values; settings: 36 days after treatment; g a.i./ha: tribenuron-methyl 22.5, metsulfuron-methyl 6, ethametsulfuron-methyl 16, imazapyr isopropylamine salt 15, aclonifen 1200
Excerpt: as §2, §3

Capsella bursa pastoris = experiment: Test H weed control, field plots; type: in vivo; design: concentration or dose not given beside the values; settings: 36 days after treatment; g a.i./ha: tribenuron-methyl 22.5, metsulfuron-methyl 6, ethametsulfuron-methyl 16, imazapyr isopropylamine salt 15, aclonifen 1200
Excerpt: as §2, §3

M5M12 = experiment: Test B greenhouse phytotoxicity, M5M12; type: in vivo, sunflower; settings: M5M12; 15 g a.i./ha post-emergence 4-leaf stage
Method: as §1

Chenopodium album = experiment: Test H weed control, field plots; type: in vivo; settings: 36 days after treatment; g a.i./ha: tribenuron-methyl 22.5, metsulfuron-methyl 6, ethametsulfuron-methyl 16, imazapyr isopropylamine salt 15, aclonifen 1200
Excerpt: as §2, §3

Stellaria media = experiment: Test H weed control, field plots; type: in vivo; settings: 36 days after treatment; g a.i./ha: tribenuron-methyl 22.5, metsulfuron-methyl 6, ethametsulfuron-methyl 16, imazapyr isopropylamine salt 15, aclonifen 1200
Excerpt: as §2, §3

BC4-M5M12 = experiment: Test B greenhouse phytotoxicity, BC4-M5M12; type: in vivo, sunflower; settings: BC4-M5M12; 15 g a.i./ha post-emergence 4-leaf stage
Method: as §1

BC4-M5M7 = experiment: Test B greenhouse phytotoxicity, BC4-M5M7; type: in vivo, sunflower; settings: BC4-M5M7; 15 g a.i./ha post-emergence 4-leaf stage
Method: as §1

M5M11 = experiment: Test B greenhouse phytotoxicity, M5M11; type: in vivo, sunflower; settings: M5M11; 15 g a.i./ha post-emergence 4-leaf stage
Method: as §1

Orobanche cumana = experiment: Test E control of Orobanche cumana in resistant sunflower hybrid; type: in vivo
Method: The effect of the various treatments was evaluated 35 days after sowing. The sunflower roots were cleaned by washing in water, and the presence of Orobanche nodules was determined visually and by weighing root wet mass in comparison to check plants free of Orobanche infestation. […] The nodules caused by Orobanche increased root weight, and a correlation (r=0.7) was found between visual scores and weight measurements. Thus the weighing technique could be used to corroborate visual efficacy scorings. Orobanche emergence was also scored but found to be less useful to evaluate treatment efficiency at the evaluation timing of this test.
(§4) Based on the results from Test D, a modified protocol was developed to include three timings of post-emergence treatment. The hybrid BC4-M5M12 (female parent)×PHA155 restorer line (male parent) described in Test C was used in this test. Various herbicide programs were tested using three replications. […] Seed coatings of these formulated herbicides were applied to 6 kg of seeds in such amount that considering the distribution of the coated seeds in each pot, the herbicide active ingredient (a.i.) application rates per hectare were as indicated.
(§5) The treatments were applied similar to the methods described for Test D. Pre-emergence applications were broadcast only, not soil incorporated. For pre-emergence application, the pots were sprayed using the high rates of the herbicides two days after sowing the sunflower seeds. Post-emergence treatments were applied at the 4-6 leaf stage of sunflower (corresponding to early stage of Orobanche attachment; identified as “T1”), the 6-8 leaf stage of sunflower (corresponding to the mid stage of Orobanche attachment; nodules <5 mm diameter; identified as “T2”) and 8-12 leaf stage of sunflower (corresponding to late stage of Orobanche attachment; identified as “T3”). The mid-stage applications included the high as well as low application rates of each herbicide.
(§6) For comparison were also included in this test other acetolactate synthase-inhibiting herbicides reported in the literature as giving good weed control of Orobanche (L. García-Torres et al., Weed Research 1994, 34, 395-402; L. García-Torres et al., Weed Technology 1995, 9, 819-824; J. Hershenhorn et al., Weed Technology 1998, 12, 108-114).

[2] = tested on: BC4-M5M12 × PHA155 hybrid; experiment: Test E injury to sunflower hybrid; type: in vivo; settings: in vivo
Method: as §4, §5, §6

[3] = tested on: Orobanche cumana (Race F); experiment: Test F sequential application to control Orobanche cumana; type: in vivo; settings: post-emergence T3 15 g a.i./ha
Method: A greenhouse experiment was performed to identify the best sequential program compared to straight application of tribenuron-methyl or metsulfuron-methyl for control of Orobanche cumana (Race F). The dose range for optimum efficacy was also studied. Both herbicides were used as formulated compositions. […] BC4-M5M7×PHA155 is referred to below as “Hybrid 7”, and BC4-M5M12×PHA155 is referred to below as “Hybrid 12”.
Seed coating treatment was performed as described for Test D. Post-emergence treatments were applied at the 2-4 leaf stage of sunflower (corresponding to early stage of Orobanche attachment; identified as “T1”), the 6 leaf stage of sunflower (corresponding to the mid stage of Orobanche attachment; nodules <5 mm diameter; identified as “T2”) and 8 leaf stage of sunflower (corresponding to late stage of Orobanche attachment; identified as “T3”).
The efficacy was evaluated visually as described for Test D except that the efficacy was assessed ten days later than for Tests D and E. The later evaluation allowed observing any reduction of efficacy due to late Orobanche emergence or re-growth of treated nodules. Efficacy in controlling Orobanche attached to roots was evidenced by nodules comprising black necrotic tissues with no apparent active meristematic area. These nodules could be easily crushed between fingers.

| SMILES | weed control, visual rating: Setaria viridis (Setaria viridis) | weed control, visual rating: Viola arvensis (Viola arvensis) | weed control, visual rating: Matricaria inodora (Matricaria inodora) | weed control, visual rating: Sinapis arvensis (Sinapis arvensis) | weed control, visual rating: Mercurialis annua (Mercurialis annua) | weed control, visual rating: Polygonum persicaria (Polygonum persicaria) | weed control, visual rating: Polygonum convolvulus (Polygonum convolvulus) | weed control, visual rating: Anagallis arvensis (Anagallis arvensis) | weed control, visual rating: Solanum nigrum (Solanum nigrum) | weed control, visual rating: Amaranthus retroflexus (Amaranthus retroflexus) | weed control, visual rating: Echinochloa crus-galli (Echinochloa crus-galli) | weed control, visual rating: Polygonum aviculare (Polygonum aviculare) | weed control, visual rating: Atriplex patula (Atriplex patula) | weed control, visual rating: Capsella bursa pastoris (Capsella bursa pastoris) | weed control, visual rating: Chenopodium album (Chenopodium album) | weed control, visual rating: Stellaria media (Stellaria media) | also measured |
| --- | --- | --- | --- | --- | --- | --- | --- | --- | --- | --- | --- | --- | --- | --- | --- | --- | --- |
| CCOc1nc(NC)nc(NC(=O)NS(=O)(=O)c2ccccc2C(=O)OC)n1 [Ethametsulfuron-methyl, ethametsulfuron-methyl] | 0% | 0% | 67% | 97% | 0% | 0% | 0% | 100% | 70% | 82% | 33% | 0% | 0% | 100% | 0% | 79% | Maximum Phytotoxicity (M5M7): 10%; tolerance of the mutants [1]: extremely resistant; Maximum Phytotoxicity (BC4-M5M11): 10%; Maximum Phytotoxicity (M5M12): 0%; Maximum Phytotoxicity (BC4-M5M12): 0%; Maximum Phytotoxicity (BC4-M5M7): 5%; Maximum Phytotoxicity (M5M11): 0% |
| CC(C)C1(C)N=C(c2ncccc2C(=O)O)NC1=O (stereo not drawn) [Imazapyr, isopropylamine salt, Imazapyr] | 93% | 0% | 43% | 100% | 47% | 100% | 94% | 100% | 100% | 84% | 27% | 0% | 85% | 100% | 87% | 100% | relative efficacy in controlling Orobanche (Orobanche cumana; Test E rates, metsulfuron-methyl compared with tribenuron-methyl): less efficacious in controlling Orobanche; Control (Orobanche cumana; post-emergence 15 g a.i./ha at T3): 72%; Injury [2]: 0%; sunflower phytotoxicity [2]: transitory phytotoxicity symptoms; % Control in Hybrid 7 [3]: 97%; % Control in Hybrid 12 [3]: 97% |
